Legend:
[1] = plasma pharmacokinetics; settings: in the dose range 5 mg-500 mg
Text: (§1) “PK” refers to the pharmacokinetic profile. Cmax is defined as the highest plasma drug concentration estimated during an experiment (ng/ml). Tmax is defined as the time when Cmax is estimated (min). AUC0-∞ is the total area under the plasma drug concentration-time curve, from drug administration until the drug is eliminated (ng·hr/ml). The area under the curve is governed by clearance. Clearance is defined as the volume of blood or plasma that is totally cleared of its content of drug per unit time (ml/min).

[2] = in vivo; settings: plasma
Text: as §1

AUCs dose proportionality [1]: greater than proportional increase
half-life [2]: 4 to 6 h
Structure (SMILES): N[C@H]1C[C@@H](C(=O)O)CC1=C(F)F

From US20190298674A1 (Ovid Therapeutics, Inc., priority 2018, published 2019)
